Key:
[1] = system: blood vessels; assay: short-term and long-term preservation of blood vessels
[2] = system: smooth muscular cells and endothelial cells from blood vessels; assay: morphology of blood vessel cells after long storage with or without calcium (FIG. 2)
Excerpt: The vascular endothelium contains hydrocarbon chains which are bound to proteins in the cell membranes, and these constitute a so-called layer of glycocalyx. This is a thin layer of a mucous substance (composed of sugars) which is considered to enclose the cell membranes and which is important to the properties of immunity of the cell and makes the cell wall permeable. These hydrocarbon chains are bound together by, among other things, calcium. If the vascular endothelial cells are subjected to calcium-free solutions for a long time, a disintegration of the important layer of glycocalyx is assumed to take place, and the function of the endothelium thus cannot be perfect. Evidence of these discoveries has been obtained through electron microscope studies of cell membranes in blood vessels that have been stored in preservation solutions with and without calcium.
The pictures show, on the one hand, smooth muscular cells from blood vessels and, on the other hand, endothelial cells from blood vessels that have been stored for a long time with or without calcium. In the case of preservation without calcium (a: smooth muscular cell and c: endothelial cell), there appears an enormous swelling of the nuclei and the cytoplasm in both types of cells.

Row | Compound | toxicity to the vascular endothelium / endothelial function [1] | cell morphology after long storage [2] | time for which smooth muscle function in blood vessels is preserved ([1]; long-term preservation)
1 | heparin [reference compound] | not toxic to the endothelial function | – | –
2 | [Ca+2] [calcium] | – | normal structures of the cells | up to 36 hours

Source: US6794124B2, “Preservation solution” (Stiftelsen Facthor, priority 1995, dated 2004)
